Laboratory results from patent publication US20250011289A1, “1H-BENZO[B]AZEPIN-2(3H)-ONE COMPOUNDS, COMPOSITIONS AND METHODS OF TREATING CANCER” (Chengdu Anticancer Bioscience, Ltd., priority 2021, published 2025).
Read-outs that look alike come from different tables or passages of the source.

What was measured:
[1] = tested on: RPE-Neo or RPE-MYC cells; assay: MTT assay of cellular proliferation; format: cell-based; conditions: compounds at 20 nM to 20 μM; read-out: Min. Effective conc. for Proliferative arrest (>50%)
Summary of the method: (§1)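 RPE-Neo, RPE-MYC or RPE-MYC EGFP-Histone 2B cells exposed to compound at 20 nM to 20 μM, 18-24 h after plating. Mitotic arrest or DNA-content change imaged at 24, 48 or 72 h; proliferation by MTT. Values binned A (1 nM–1.0 μM), B (>1.00–10.0 μM), C (>10.0–30.0 μM), D (>30.0–<1000 μM).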

[2] = tested on: RPE-Neo or RPE-MYC or RPE-MYC expressing an EGFP-Histone 2B fusion protein; assay: Phenotypic screening assay (arrest in mitosis or change in DNA content, IN-Cell Analyzer); format: cell-based; conditions: compounds at 20 nM to 20 μM, analysed 24, 48 or 72 hours after initiation of treatment
Summary of the method: as §1

[3] = read-out: Min. Effective conc. for Along with Cell Death
[4] = read-out: Min. Effective conc. for Mitotic Arrest (>5%)
[5] = read-out: Min. Effective conc. for Polyploidy (≥5%)

## Cc1ccc(CN2C(=O)CC(CO[C@@H]3CCOC3)=C(Br)c3ccccc32)cc1F [Compound 44-5, (R)-5-bromo-1-(3-fluoro-4-methylbenzyl)-4-(((tetrahydrofuran-3-yl)oxy)methyl)-1,3-dihydro-2H-benzo[b]azepin-2-one]
[1]
  minimal effective concentration: 0.001 to 1 µM
[2]; [3]
  minimal effective concentration: 0.001 to 1 µM
[2]; [4]
  minimal effective concentration: 0.001 to 1 µM
[2]; [5]
  minimal effective concentration: 0.001 to 1 µM

## Cc1ccc(CN2C(=O)CC(CO[C@H]3CCOC3)=C(Br)c3ccccc32)cc1F [Compound 44-6, (S)-5-bromo-1-(3-fluoro-4-methylbenzyl)-4-(((tetrahydrofuran-3-yl)oxy)methyl)-1,3-dihydro-2H-benzo[b]azepin-2-one]
[1]
  minimal effective concentration: 0.001 to 1 µM
[2]; [3]
  minimal effective concentration: 0.001 to 1 µM
[2]; [4]
  minimal effective concentration: 0.001 to 1 µM
[2]; [5]
  minimal effective concentration: 0.001 to 1 µM

## Cc1ccc(CN2C(=O)CC(CN3CCCC3)=C(Br)c3ccccc32)cc1F [Compound 45, 5-bromo-1-(3-fluoro-4-methylbenzyl)-4-(pyrrolidin-1-ylmethyl)-1,3-dihydro-2H-benzo[b]azepin-2-one]
[1]
  minimal effective concentration: 1 to 10 µM
[2]; [3]
  minimal effective concentration: 1 to 10 µM
[2]; [4]
  minimal effective concentration: 1 to 10 µM
[2]; [5]
  minimal effective concentration: 1 to 10 µM
